Measurements taken from the NIST ThermoML archive (doi:10.1021/je200128y).
Several values for one entry are separate records, joined by “and”; a condition that tells them apart may be missing. Equal values may be shown once.

Conditions: Transpiration method

c1ccc(Nc2ccccc2)cc1 [diphenylamine]
Conditions	vapor or sublimation pressure
293.1 K, Crystal	4e-05 kPa
293.7 K, Crystal	4e-05 kPa
296.2 K, Crystal	6e-05 kPa
298.2 K, Crystal	7e-05 kPa
298.4 K, Crystal	8e-05 kPa
300.2 K, Crystal	0.0001 kPa
301 K, Crystal	0.00012 kPa
302.1 K, Crystal	0.00013 kPa
302.7 K, Crystal	0.00015 kPa
303.2 K, Crystal	0.00014 kPa
305.2 K, Crystal	0.00017 kPa
305.5 K, Crystal	0.0002 kPa
308 K, Crystal	0.00024 kPa and 0.00025 kPa
308.2 K, Crystal	0.00026 kPa
309.1 K, Crystal	0.00029 kPa
309.3 K, Crystal	0.0003 kPa
310.7 K, Crystal	0.00034 kPa
312.3 K, Crystal	0.00042 kPa
313 K, Crystal	0.00045 kPa
313.7 K, Crystal	0.0005 kPa
315 K, Crystal	0.00054 kPa and 0.00055 kPa
315.4 K, Crystal	0.00061 kPa
315.7 K, Crystal	0.0006 kPa
316 K, Crystal	0.00065 kPa
316.7 K, Crystal	0.0007 kPa
317.2 K, Crystal	0.00075 kPa
318 K, Crystal	0.00083 kPa
318.2 K, Crystal	0.00086 kPa
318.3 K, Crystal	0.00085 kPa
318.7 K, Crystal	0.00085 kPa
320.3 K, Crystal	0.00111 kPa
320.7 K, Crystal	0.0011 kPa
322.3 K, Crystal	0.00138 kPa
323.2 K, Crystal	0.00153 kPa and 0.00143 kPa
324.1 K, Crystal	0.00169 kPa
324.7 K, Crystal	0.00164 kPa
325.2 K, Crystal	0.00186 kPa
326.7 K, Crystal	0.00203 kPa
328.3 K, Liquid	0.00245 kPa
332.2 K, Liquid	0.00343 kPa
335.4 K, Liquid	0.00438 kPa
338.1 K, Liquid	0.00522 kPa
341.2 K, Liquid	0.00684 kPa
343.2 K, Liquid	0.0081 kPa
346.1 K, Liquid	0.00963 kPa
348.2 K, Liquid	0.01174 kPa
353.1 K, Liquid	0.01698 kPa
357.2 K, Liquid	0.02181 kPa
358.2 K, Liquid	0.02355 kPa
360.2 K, Liquid	0.02829 kPa
363 K, Liquid	0.0322 kPa
363.1 K, Liquid	0.03321 kPa
366.1 K, Liquid	0.04193 kPa
368.1 K, Liquid	0.04848 kPa
368.3 K, Liquid	0.04791 kPa
371.9 K, Liquid	0.06108 kPa
373.1 K, Liquid	0.06621 kPa
